The source of these data is patent US10174026B2, “Histone demethylase inhibitors” (CELGENE QUANTICEL RESEARCH, INC., priority 2013, dated 2019).

JMJD2C, sequence (Q9H3R0 2-372): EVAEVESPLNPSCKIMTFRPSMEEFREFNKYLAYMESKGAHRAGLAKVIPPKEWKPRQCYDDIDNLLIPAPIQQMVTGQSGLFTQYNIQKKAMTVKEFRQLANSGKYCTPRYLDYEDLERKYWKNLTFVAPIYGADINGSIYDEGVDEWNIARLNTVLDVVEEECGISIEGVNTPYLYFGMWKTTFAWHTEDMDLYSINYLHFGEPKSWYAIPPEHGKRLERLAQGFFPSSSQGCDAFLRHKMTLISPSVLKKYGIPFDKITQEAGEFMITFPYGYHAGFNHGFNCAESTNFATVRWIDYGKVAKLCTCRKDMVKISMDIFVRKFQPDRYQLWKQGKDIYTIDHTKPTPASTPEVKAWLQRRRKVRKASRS

In the first assay the target is Jarid1A (Homo sapiens (Human), UniProt P29375). The assay is described as follows: Jarid1A in vitro enzyme inhibition assay (TR-FRET).
Jarid1A, sequence (P29375 1-1090): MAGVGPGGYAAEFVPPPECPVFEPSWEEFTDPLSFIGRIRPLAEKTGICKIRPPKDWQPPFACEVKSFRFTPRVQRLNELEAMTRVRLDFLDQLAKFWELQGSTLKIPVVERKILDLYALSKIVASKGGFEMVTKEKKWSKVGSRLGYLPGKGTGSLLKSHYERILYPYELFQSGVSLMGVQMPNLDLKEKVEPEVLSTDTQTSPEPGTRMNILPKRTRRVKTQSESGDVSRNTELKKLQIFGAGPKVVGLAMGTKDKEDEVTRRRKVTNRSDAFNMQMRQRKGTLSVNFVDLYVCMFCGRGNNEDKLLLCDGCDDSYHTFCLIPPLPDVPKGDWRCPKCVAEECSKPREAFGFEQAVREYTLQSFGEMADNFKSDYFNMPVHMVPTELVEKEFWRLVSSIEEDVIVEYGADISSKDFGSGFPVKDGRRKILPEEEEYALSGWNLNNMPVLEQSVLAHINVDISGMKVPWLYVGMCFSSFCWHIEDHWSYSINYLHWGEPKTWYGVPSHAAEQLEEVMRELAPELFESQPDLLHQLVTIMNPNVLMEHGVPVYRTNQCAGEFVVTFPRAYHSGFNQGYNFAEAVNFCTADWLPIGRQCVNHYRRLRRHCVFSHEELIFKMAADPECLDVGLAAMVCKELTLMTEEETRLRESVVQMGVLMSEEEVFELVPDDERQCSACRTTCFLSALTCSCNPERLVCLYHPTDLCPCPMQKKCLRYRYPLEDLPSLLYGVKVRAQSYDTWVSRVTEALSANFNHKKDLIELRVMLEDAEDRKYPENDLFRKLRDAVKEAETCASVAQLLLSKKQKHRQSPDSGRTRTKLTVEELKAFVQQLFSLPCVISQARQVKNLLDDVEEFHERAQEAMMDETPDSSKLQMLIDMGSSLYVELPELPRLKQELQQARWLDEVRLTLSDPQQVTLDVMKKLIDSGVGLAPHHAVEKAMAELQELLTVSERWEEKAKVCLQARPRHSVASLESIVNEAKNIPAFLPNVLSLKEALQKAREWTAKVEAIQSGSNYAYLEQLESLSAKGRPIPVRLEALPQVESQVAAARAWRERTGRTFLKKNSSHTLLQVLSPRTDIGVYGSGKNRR
Conditions: not given
The format is biochemical. As for the experimental part: (§1) This assay determines the ability of a test compound to inhibit Jarid1A, Jarid1B, JMJD2C, and JMJD2A demethylase activity.
The enzymatic assay of Jarid1A activity is based upon Time Resolved-Fluorescence Resonance Energy Transfer (TR-FRET) detection.
The assay reaction was initiated by the following: 2 μl of the mixture of 900 nM H3K4me3-biotin labeled peptide and 6 μM alpha-ketoglutaric acid with 2 μl of 11-point serial diluted inhibitor in 3% DMSO was added to each well of plate, followed by the addition of 2 μl of 3 nM Jarid1A to initiate the reaction. The reaction mixture was incubated at room temp for 30 min, and terminated by the addition of 6 μl of 5 mM EDTA in LANCE detection buffer containing 50 nM Phycolink Streptavidin-allophycocyanin and 2 nM Europium-anti-H3K4me1-2 antibody.
A general note: TR-FRET usually uses a lanthanide donor and a delayed reading to cut background.
As a reminder, the IC50 is the concentration at which inhibition is half-maximal. A high value points to weaker potency. Take “(±)-methyl 2-(1-hydroxy-2-methylpropyl)-1H-pyrrolo[3,2-b]-pyridine-7-carboxylate [Example 30]”: the IC50 lay within 100 to 1000 nM.

Another assay deals with Jarid1B (Homo sapiens (Human), UniProt Q9UGL1). The assay is described as follows: Jarid1B in vitro enzyme inhibition assay (TR-FRET). Format: biochemical.
Jarid1B, sequence (Q9UGL1 2-751): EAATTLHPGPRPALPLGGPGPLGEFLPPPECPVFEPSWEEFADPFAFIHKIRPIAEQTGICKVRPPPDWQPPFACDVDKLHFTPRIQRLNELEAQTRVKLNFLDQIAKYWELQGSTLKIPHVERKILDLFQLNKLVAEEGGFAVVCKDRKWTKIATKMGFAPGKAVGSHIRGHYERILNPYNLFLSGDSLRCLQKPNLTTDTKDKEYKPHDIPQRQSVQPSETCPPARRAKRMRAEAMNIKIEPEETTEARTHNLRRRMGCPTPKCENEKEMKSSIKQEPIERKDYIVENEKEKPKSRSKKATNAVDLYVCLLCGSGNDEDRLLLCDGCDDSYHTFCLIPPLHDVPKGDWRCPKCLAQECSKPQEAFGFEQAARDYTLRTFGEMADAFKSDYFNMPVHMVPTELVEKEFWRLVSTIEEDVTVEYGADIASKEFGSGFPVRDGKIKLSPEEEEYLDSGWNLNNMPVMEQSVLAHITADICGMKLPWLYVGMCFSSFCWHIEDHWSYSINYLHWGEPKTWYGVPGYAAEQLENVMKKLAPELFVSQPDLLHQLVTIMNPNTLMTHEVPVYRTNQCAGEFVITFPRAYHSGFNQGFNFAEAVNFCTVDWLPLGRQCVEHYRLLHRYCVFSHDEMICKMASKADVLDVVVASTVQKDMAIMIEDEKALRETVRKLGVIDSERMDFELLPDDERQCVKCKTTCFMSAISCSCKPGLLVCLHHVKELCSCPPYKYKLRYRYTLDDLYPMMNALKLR
Conditions: not given
As for the experimental part:
as §1
The reaction mixture was incubated at room temp for 30 min, and terminated by the addition of 6 μl of 5 mM EDTA in LANCE detection buffer containing 50 nM Phycolink Streptavidin-allophycocyanin and 2 nM Europium-anti-H3K4me1-2 antibody.
In turn, “(±)-methyl 2-(1-hydroxy-2-methylpropyl)-1H-pyrrolo[3,2-b]-pyridine-7-carboxylate [Example 30]” had an IC50 of under 100 nM.

Another assay concerns the target JMJD2C (Homo sapiens (Human), UniProt Q9H3R0). The assay is described as follows: JMJD2C in vitro enzyme inhibition assay (TR-FRET). The format is biochemical.
Conditions: not given
As for the experimental part: as §1
Reaction product was determined quantitatively by TR-FRET after the addition of detection reagent Phycolink Streptavidin-allophycocyanin (Prozyme) and Europium-anti-di-methylated histone H3 lysine 9 (H3K9me2) antibody (PerkinElmer) in the presence of 5 mM EDTA in LANCE detection buffer (PerkinElmer) at a final concentration of 50 nM and 1 nM, respectively.
Turning to “(±)-methyl 2-(1-hydroxy-2-methylpropyl)-1H-pyrrolo[3,2-b]-pyridine-7-carboxylate [Example 30]”, the IC50 is under 100 nM.

The test system of the next assay is KYSE-150 cell line. In words: In vitro cell-based assay, KYSE-150 cell line: BrdU cell proliferation ELISA. The note with it: Homo sapiens; KYSE-150 cells, 168 hr, BrdU incorporation. As for the experimental part: The primary cellular assay for JMJD2C inhibition is an assay which measures cellular proliferation via Bromodeoxyuridine (BrdU) incorporation after 168 hr of compound incubation. This assay is a quantitative ELISA assay measuring DNA incorporation of BrdU during S-phase as a direct readout of cellular proliferation. The KYSE-150 cell line is a JMJD2C gene amplified cell line.
This is a colorimetric immunoassay for the quantification of cell proliferation. Cells treated for 168 hr with test compounds are assayed for their ability to go through S-phase as a measure of their proliferative potential.
The human KYSE-150 (SMAD4 mut, TP53 mut) esophageal carcinoma cell line was seeded at 2,000 cells/well on a 96-well tissue culture treated plate. After an overnight incubation, cells were treated with a test compound in an 11 point dilution series with final concentrations ranging from 100 μM to 2 nM. Cells were then incubated in the presence of compound for 168 hr. After compound incubation, the cells were assayed using a BrdU Cell Proliferation ELISA (Roche). The cells were first incubated with BrdU labeling reagent for 2 hr. After 2 hr, these BrdU incorporated cells were fixed and denatured, probed with an anti-BrdU-Peroxidase antibody for 1.5 hr and washed. Finally, a tetramethylbenzidine peroxidase substrate was added to each well for 15 min followed by H2SO4 stop solution. The plate is read at 450 nm, and the raw optical density data is transferred into XLFit (IDBS) for IC50 calculation using the formula: fit=(D+((Vmax*(x^n))/((x^n)+(Km^n))))
(In an ELISA, binding on a coated surface is turned into a signal by an enzyme label.)
In turn, `CNC(=O)c1ccnc2cc(Cc3ccc(Cl)c(OC(F)(F)F)c3)[nH]c12` [Example 144, 2-[4-chloro-3-(trifluoro-methoxy)benzyl]-N-methyl-1H-pyrrolo-[3,2-b]pyridine-7-carboxamide] displayed an IC50 of under 100 nM. Regarding `COC(=O)c1ccnc2cc(Cc3ccc(Cl)c(Cl)c3)[nH]c12` [Example 129, methyl 2-(3,4-dichlorobenzyl)-1H-pyrrolo[3,2-b]pyridine-7-carboxylate], the IC50 was under 100 nM. The same measure, in the same setting: for `COC(=O)c1ccnc2cc(Cc3cc(F)c(Cl)c(Cl)c3)[nH]c12` [Example 131, methyl 2-(3,4-dichloro-5-fluorobenzyl)-1H-pyrrolo-[3,2-b]pyridine-7-carboxylate] the value was under 100 nM; for `COC(=O)c1ccnc2cc(Cc3ccc(Cl)c(C(F)(F)F)c3)[nH]c12` [Example 135, methyl 2-[4-chloro-3-(trifluoromethyl)benzyl]-1H-pyrrolo[3,2-b]pyridine-7-carboxylate], under 100 nM; for `COC(=O)c1ccnc2cc(Cc3ccc(Cl)c(OCC(F)(F)F)c3)[nH]c12` [Example 139, methyl-2-[4-chloro-3-(2,2,2-trifluoroethoxy)benzyl]-1H-pyrrolo[3,2-b]pyridine-7-carboxylate], under 100 nM.

Turning to `COC(=O)c1ccnc2cc(Cc3ccc(Cl)c(OC)c3)[nH]c12` [Example 127, methyl 2-(4-chloro-3-methoxybenzyl)-1H-pyrrolo-[3,2-b]-pyridine-7-carboxylate], the IC50 was under 100 nM. The molecule `COC(=O)c1ccnc2cc(Cc3ccc(Cl)c(C)c3)[nH]c12` [Example 133, methyl-2-(4-chloro-3-methylbenzyl)-1H-pyrrolo-[3,2-b]pyridine-7-carboxylate] came in with an IC50 of 100 to 1000 nM. Same read-out and setting: for `COC(=O)c1ccnc2cc(Cc3ccc(Cl)c(OC(F)(F)F)c3)[nH]c12` [Example 141, methyl-2-[4-chloro-3-(trifluoromethoxy)benzyl]-1H-pyrrolo[3,2-b]pyridine-7-carboxylate] the value was under 100 nM. In turn, `CNC(=O)c1ccnc2cc(Cc3ccc(Cl)cc3)[nH]c12` [Example 143, 2-[4-chloro-benzyl]-N-methyl-1H-pyrrolo[3,2-b]pyridine-7-carboxamide] had a half-maximal inhibitory concentration (IC50) of 100 to 1000 nM. Molecule `COC(=O)c1ccnc2cc(Cc3ccc(Cl)c(OCC4CC4)c3)[nH]c12` [Example 137, methyl 2-[4-chloro-3-(cyclo-propylmethoxy)benzyl]-1H-pyrrolo[3,2-b]pyridine-7-carboxylate] yielded an IC50 of under 100 nM. Same read-out and setting: the figure for `COC(=O)c1ccnc2cc(Cc3ccc(F)c(F)c3)[nH]c12` [Example 125, methyl 2-(3,4-difluorobenzyl)-1H-pyrrolo[3,2-b]pyridine-7-carboxylate] is 1000 to 10000 nM.
